We go through 21 molecules from patent US20190367516A1 (Bayer Pharma Aktiengesellschaft, priority 2015, published 2019).

Assay [1] concerns the target T1, human M2 receptor (Homo sapiens, UniProt P08172).
T1 sequence (P08172 1-466): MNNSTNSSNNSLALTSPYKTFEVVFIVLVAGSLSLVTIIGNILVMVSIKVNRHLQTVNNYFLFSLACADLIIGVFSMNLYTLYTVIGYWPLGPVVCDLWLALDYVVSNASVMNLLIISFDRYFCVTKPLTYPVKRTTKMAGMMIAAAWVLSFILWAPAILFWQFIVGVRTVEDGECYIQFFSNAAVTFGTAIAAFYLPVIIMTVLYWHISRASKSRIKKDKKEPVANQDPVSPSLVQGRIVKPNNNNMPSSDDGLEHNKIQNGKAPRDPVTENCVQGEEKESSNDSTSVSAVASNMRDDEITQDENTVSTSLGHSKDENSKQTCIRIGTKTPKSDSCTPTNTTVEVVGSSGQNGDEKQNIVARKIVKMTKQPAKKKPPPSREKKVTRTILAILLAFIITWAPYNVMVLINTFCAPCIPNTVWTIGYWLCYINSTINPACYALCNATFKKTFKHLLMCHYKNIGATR
In kind it is cell-based. To be noted: α >1 = positive cooperativity. On the procedure:
B-1.2. Determination of Positive Cooperativity (α Factor)
In contrast to the EC50 determination of the test substances (see B-1.1), however, this is not done using one acetylcholine concentration; instead, every concentration of the test substance is combined with an acetylcholine 8-point dose-response curve. […] The shift in the acetylcholine dose-response curve in the presence of increasing concentrations of the test substance is analysed and quantified by means of GraphPad PRISM (Allosteric EC50 shift). […] Positive cooperativity is the hallmark of a positive allosteric modulator. […] The greater the magnitude of the α value, the greater the extent of cooperativity between orthosteric and allosteric.

Assay [2] concerns the target T1, human M2 receptor. The conditions noted are these: for Emax: read-out: Efficiency, boosting of the acetylcholine effect at EC20 acetylcholine concentration; for Efficiency: boosting of the acetylcholine effect at EC20 acetylcholine concentration.
[3] abbreviates: shift of acetylcholine dose-response curve (Allosteric EC50 shift).
[4] abbreviates: Receptor activity EC50, allosteric potency at EC20 acetylcholine, M2-GIRK1/4 reporter cells, in some cases mean of two or more determinations.
The mark [5] stands for this setting: shift in the acetylcholine dose-response curve (Allosteric EC50 shift, GraphPad PRISM).
Setting [6] is: Receptor activity EC50, M2-GIRK1/4 activation test, acetylcholine at EC20, allosteric potency, in some cases mean values from two or more determinations.

Read-outs that look alike come from different tables or passages of the source.

Turning to `O=C(NC1(C(F)(F)F)CCC1)c1cn(-c2c(F)cc(F)cc2F)c2nc(N3C[C@@H](O)CC3=O)ccc2c1=O` [Example 515, 7-[(4S)-4-Hydroxy-2-oxopyrrolidin-1-yl]-4-oxo-N-[1-(trifluoromethyl)cyclobutyl]-1-(2,4,6-trifluorophenyl)-1,4-dihydro-1,8-naphthyridine-3-carboxamide], the “Cooperativity (alpha factor)” value in assay [1] (setting [3]) is 37. Also, the response in assay [2] (setting [4]) was half-maximal at 12 nM (EC50). Besides, the Emax in assay [2] (M2-GIRK1/4 reporter cells) was found to be 99.3%.
As for `CN(C)c1ccc2c(=O)c(C(=O)NCc3c(Cl)cccc3C(F)(F)F)cn(-c3ccc(F)cc3F)c2n1` [Example 58, N-[2-Chloro-6-(trifluoromethyl)benzyl]-1-(2,4-difluorophenyl)-7-(dimethylamino)-4-oxo-1,4-dihydro-l,8-naphthyridine-3-carboxamide], in assay [1] (setting [5]), the “Cooperativity (alpha factor)” value is 9.
Regarding `CC[C@@H](NC(=O)c1cn(-c2ccc(F)cc2F)c2nc(N3CCC(O)C3=O)ccc2c1=O)C(F)(F)F` (mixture of isomers) [Example 224, 1-(2,4-Difluorophenyl)-7-[3-hydroxy-2-oxopyrrolidin-1-yl]-4-oxo-N-[(2R)-1,1,1-trifluorobutan-2-yl]-1,4-dihydro-1,8-naphthyridine-3-carboxamide], in assay [1] (setting [5]), the “Cooperativity (alpha factor)” value is 31. For the same molecule, a half-maximal effect in assay [2] (setting [6]) (EC50) was put at 157 nM.
For `O=C(NC1(C(F)(F)F)CCC1)c1cn(-c2c(F)cc(F)cc2F)c2nc(N3CCNC3=O)ccc2c1=O` [Example 596, 4-Oxo-7-(2-oxoimidazolidin-1-yl)-N-[1-(trifluoromethyl)cyclobutyl]-1-(2,4,6-trifluorophenyl)-1,4-dihydro-1,8-naphthyridine-3-carboxamide], in assay [1] (setting [3]), the “Cooperativity (alpha factor)” value is recorded as 19. In assay [2] (setting [4]), the EC50 (as a rule, the concentration that produces a half-maximal response) stood at 21 nM. The Emax in assay [2] (M2-GIRK1/4 reporter cells) is 98.5%.
Turning to `CCC1CCN(c2ccc3c(=O)c(C(=O)N[C@@H](C4CC4)C(F)(F)F)cn(-c4c(F)cc(F)cc4F)c3n2)C(=O)N1` (single isomer, unassigned) [Example 448, N-[(1 S)-1-Cyclopropyl-2,2,2-trifluoroethyl]-7-[4-ethyl-2-oxotetrahydropyrimidin-1(2H)-yl]-4-oxo-1-(2,4,6-trifluorophenyl)-1,4-dihydro-1,8-naphthyridine-3-carboxamide], in assay [1] (setting [3]), the “Cooperativity (alpha factor)” value is 22. In assay [2] (setting [4]), this molecule returned a half-maximal effective concentration (EC50) of 19 nM. The Efficiency in assay [2] (M2-GIRK1/4 reporter cells) is 97.0%.
Turning to `O=C(NC(C1CCC1)C(F)(F)F)c1cn(-c2c(F)cc(F)cc2F)c2nc(N3C[C@@H](O)CC3=O)ccc2c1=O` (single isomer, unassigned) [Example 506], the “Cooperativity (alpha factor)” value in assay [1] (setting [3]) is reported as 57. Moreover, the EC50 in assay [2] (setting [4]) came to 7 nM. Moreover, the Emax in assay [2] (M2-GIRK1/4 reporter cells) is 100%.
Taken in the same sequence, the figures for `C[C@H]1CN(c2ccc3c(=O)c(C(=O)N[C@@H](C4CC4)C(F)(F)F)cn(-c4c(F)cc(F)cc4F)c3n2)C(=O)N1` [Example 449, N-[(1 S)-1-Cyclopropyl-2,2,2-trifluoroethyl]-7-[(4S)-4-methyl-2-oxoimidazolidin-1-yl]-4-oxo-1-(2,4,6-trifluorophenyl)-1,4-dihydro-1,8-naphthyridine-3-carboxamide] were 34, 15 nM and 91%.
For the molecule `CC[C@@H](NC(=O)c1cn(-c2ccc(F)cc2F)c2nc(N3CCC(O)C3=O)ccc2c1=O)C(F)(F)F` (single isomer, unassigned) [Example 225], in assay [1] (setting [5]), the “Cooperativity (alpha factor)” value amounted to 33. In assay [2] (setting [6]), this molecule came in with a 50% effective concentration (EC50) of 363 nM.
Take `CCC(NC(=O)c1cn(-c2c(F)cc(F)cc2F)c2nc(N3C[C@@H](O)[C@H](O)C3)ccc2c1=O)C(F)(F)C(F)(F)F` (single isomer, unassigned) [Example 524]: in assay [1] (setting [3]), the “Cooperativity (alpha factor)” value is listed as 60.
Regarding `CC[C@H](NC(=O)c1cn(-c2c(F)cc(F)cc2F)c2nc(N3CCN(CCO)C3=O)ccc2c1=O)C(F)(F)F` [Example 362, 7-[3-(2-Hydroxyethyl)-2-oxoimidazolidin-1-yl]-4-oxo-N-[(2S)-1,1,1-trifluorobutan-2-yl]-1-(2,4,6-trifluorophenyl)-1,4-dihydro-1,8-naphthyridine-3-carboxamide], the “Cooperativity (alpha factor)” value in assay [1] (setting [5]) stood at 27.
The molecule `CC(C)Nc1ccc2c(=O)c(C(=O)NC34CCC(CC3)CC4)cn(-c3ccc(F)cc3F)c2n1` [compound 159] returned an EC50 in assay [2] (setting [6]) of 117 nM.
Same read-out and setting: as for `O=C(NC12CCC(F)(CC1)CC2)c1cn(-c2ccc(F)cc2F)c2nc(N3CC[C@H](F)C3)ccc2c1=O` [Example 63, 1-(2,4-Difluorophenyl)-N-(4-fluorobicyclo[2.2.2]oct-1-yl)-7-[(3S)-3-fluoropyrrolidin-1-yl]-4-oxo-1,4-dihydro-1,8-naphthyridine-3-carboxamide], the figure is 40 nM; as for `O=C(NC12CC3CC(CC(C3)C1)C2)c1cn(-c2ccc(F)cc2F)c2nc(N3CCC(F)(F)C3)ccc2c1=O` [Example 73, 1-(2,4-Difluorophenyl)-7-(3,3-difluoropyrrolidin-1-yl)-4-oxo-N-(tricyclo[3.3.1.1^3,7]dec-1-yl)-1,4-dihydro-1,8-naphthyridine-3-carboxamide], 73 nM; as for `O=C(NC12CC3CC(CC(C3)C1)C2)c1cn(-c2ccc(F)cc2F)c2nc(N3CC[C@@H](F)C3)ccc2c1=O` [Example 72, 1-(2,4-Difluorophenyl)-7-[(3R)-3-fluoropyrrolidin-1-yl]-4-oxo-N-(tricyclo[3.3.1.1^3,7]dec-1-yl)-1,4-dihydro-1,8-naphthyridine-3-carboxamide], 53 nM.
In turn, `CN(CCF)c1ccc2c(=O)c(C(=O)NC34CCC(F)(CC3)CC4)cn(-c3ccc(F)cc3F)c2n1` [Example 110, 1-(2,4-Difluorophenyl)-N-(4-fluorobicyclo[2.2.2]oct-1-yl)-7-[(2-fluoroethyl)(methyl)amino]-4-oxo-1,4-dihydro-1,8-naphthyridine-3-carboxamide] had a concentration giving a half-maximal response (EC50) in assay [2] (setting [6]) of 62 nM.
`CO[C@@H]1CN(c2ccc3c(=O)c(C(=O)N[C@@H](C4CC4)C(F)(F)F)cn(-c4c(F)cc(F)cc4F)c3n2)C[C@H]1O` (single isomer, unassigned) [Example 584, N-[(1 S)-1-Cyclopropyl-2,2,2-trifluoroethyl]-7-[trans-3-hydroxy-4-methoxypyrrolidin-1-yl]-4-oxo-1-(2,4,6-trifluorophenyl)-1,4-dihydro-1,8-naphthyridine-3-carboxamide] displayed an EC50 in assay [2] (setting [4]) of 16 nM. Also, the Efficiency in assay [2] (M2-GIRK1/4 reporter cells) was found to be 98.0%.
`O=C(NC12CC3CC(CC(F)(C3)C1)C2)c1cn(-c2ccc(F)cc2F)c2nc(NCC(F)(F)F)ccc2c1=O` [Example 91, 1-(2,4-Difluorophenyl)-N-(3-fluorotricyclo[3.3.1.1^3,7]dec-1-yl)-4-oxo-7-[(2,2,2-trifluoroethyl)amino]-1,4-dihydro-1,8-naphthyridine-3-carboxamide] yielded an EC50 in assay [2] (setting [6]) of 58 nM. This lies in the double-digit nanomolar range.
For the molecule `O=C(N[C@@H](C1CC1)C(F)(F)F)c1cn(-c2c(F)cc(F)cc2F)c2nc(N3CC(O)C4(CC4)C3)ccc2c1=O` (mixture of isomers) [Example 600, N-[(1S)-1-Cyclopropyl-2,2,2-trifluoroethyl]-7-[7-hydroxy-5-azaspiro[2.4]hept-5-yl]-4-oxo-1-(2,4,6-trifluorophenyl)-1,4-dihydro-1,8-naphthyridine-3-carboxamide], in assay [2] (setting [4]), the EC50 stood at 28 nM. For the same molecule, the Emax in assay [2] (M2-GIRK1/4 reporter cells) is 96.9%.
Taken in the same sequence, the figures for `O=C(Nc1c(Cl)cccc1Cl)c1cn(-c2c(F)cc(F)cc2F)c2nc(N3C[C@@H](O)[C@H](O)C3)ccc2c1=O` [Example 585, N-(2,6-Dichlorophenyl)-7-[(3R,4R)-3,4-dihydroxypyrrolidin-1-yl]-4-oxo-1-(2,4,6-trifluorophenyl)-1,4-dihydro-1,8-naphthyridine-3-carboxamide] were 14 nM and 95.5%.
For `O=C(Nc1c(Cl)cccc1Cl)c1cn(-c2c(F)cc(F)cc2F)c2nc(N3C[C@@H](O)CC3=O)ccc2c1=O` [Example 592, N-(2,6-Dichlorophenyl)-7-[(4S)-4-hydroxy-2-oxopyrrolidin-1-yl]-4-oxo-1-(2,4,6-trifluorophenyl)-1,4-dihydro-1,8-naphthyridine-3-carboxamide], the EC50 in assay [2] (setting [4]) is 16 nM. Besides, the Emax in assay [2] (M2-GIRK1/4 reporter cells) stood at 99.5%.
`CO[C@@H]1CCN(c2ccc3c(=O)c(C(=O)NC(C)(C)c4c(F)cccc4F)cn(-c4ccc(F)cc4F)c3n2)C1` [Example 22, 1-(2,4-Difluorophenyl)-N-[2-(2,6-difluorophenyl)propan-2-yl]-7-[(3R)-3-methoxypyrrolidin-1-yl]-4-oxo-1,4-dihydro-1,8-naphthyridine-3-carboxamide] came in with an EC50 in assay [2] (setting [6]) of 131 nM.
